We go through twelve compounds from US12187709B2 (Genentech, Inc., priority 2021, dated 2025).

For one test, the target named is c-Cbl (Homo sapiens (Human), UniProt P22681). As to the kind of experiment: C-Cbl LCK Ub TR-FRET assay (C-cbl Lck HTRF). It counts as biochemical. Summed up: (§1)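 Detection reagents added, brief spin, 20 min RT. IC50 fit normalized to no-LCK (low) and DMSO (high) controls.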
Test [1] addresses Human Cbl-b (residues 40-426) (Homo sapiens (Human), UniProt Q13191). As to the kind of experiment: Cbl-b SPR assay. To be noted: for Fold of selectivity: C-cbl SPR Kd vs Cbl-b SPR Kd; for Kd: SPR, 20° C. It is filed as binding. Summed up:
(§2)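 Captured protein (1300-1500 RU for both isoforms) was probed in multi-cycle kinetics with 6 concentrations in 2-fold dilution, 60 s contact, 40 μl/min, dissociation 120-1200 s, double-referenced. Kinetic and affinity parameters came from a 1:1 binding fit. For slow off-rates, kd was set independently by a chaser-based method.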

A further test deals with c-Cbl (residues 47-435) (Homo sapiens (Human), UniProt P22681). Put plainly: c-Cbl SPR assay. To be noted: 20° C. It is filed as binding. An outline of the steps:
as §2

A further test concerns the target Cbl-b (Homo sapiens (Human), UniProt Q13191). As to the kind of experiment: Cbl-b LCK Ub TR-FRET assay (Cbl-b Lck HTRF). It is filed as biochemical. To be noted: for IC50: Cbl-b LCK Ub TR-FRET, Example 121; for (fold-selectivity) Cbl-b and C-Cbl Selectivity: ratio C-cbl Lck HTRF IC50 / Cbl-b Lck HTRF IC50. Summed up:
as §1

Chain of c-Cbl (P22681 47-435): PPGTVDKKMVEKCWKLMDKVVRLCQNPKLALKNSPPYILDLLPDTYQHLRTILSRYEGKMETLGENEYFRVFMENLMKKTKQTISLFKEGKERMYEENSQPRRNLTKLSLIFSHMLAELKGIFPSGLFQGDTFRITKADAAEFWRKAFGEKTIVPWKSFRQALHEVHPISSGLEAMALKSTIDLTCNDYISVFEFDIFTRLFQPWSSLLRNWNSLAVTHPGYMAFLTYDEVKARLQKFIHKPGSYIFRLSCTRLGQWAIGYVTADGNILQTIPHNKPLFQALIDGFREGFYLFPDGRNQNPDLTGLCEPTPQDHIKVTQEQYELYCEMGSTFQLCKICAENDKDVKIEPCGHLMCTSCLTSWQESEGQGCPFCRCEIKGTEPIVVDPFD
Chain of c-Cbl (residues 47-435) (P22681 47-435): as above
Chain of Cbl-b (Q13191 40-426): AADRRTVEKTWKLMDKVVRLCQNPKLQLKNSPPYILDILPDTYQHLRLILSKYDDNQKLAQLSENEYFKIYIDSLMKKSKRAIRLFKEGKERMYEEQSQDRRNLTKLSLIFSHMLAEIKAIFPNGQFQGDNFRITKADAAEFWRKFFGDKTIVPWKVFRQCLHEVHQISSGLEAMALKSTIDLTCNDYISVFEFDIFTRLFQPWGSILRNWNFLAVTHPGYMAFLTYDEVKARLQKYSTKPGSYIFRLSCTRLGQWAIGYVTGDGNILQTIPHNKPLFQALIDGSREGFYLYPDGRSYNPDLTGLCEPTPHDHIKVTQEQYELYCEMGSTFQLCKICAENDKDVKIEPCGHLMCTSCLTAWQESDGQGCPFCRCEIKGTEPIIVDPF
Chain of Human Cbl-b (residues 40-426) (Q13191 40-426): as above

At c-Cbl, `CO[C@H]1C[C@@](c2cccc(N3Cc4ccc(CNC5(C)CCC5)cc4C3=O)c2)(c2nncn2C)C1` [Compound 448, 2-(3-((1s,3s)-3-methoxy-1-(4-methyl-4H-1,2,4-triazol-3-yl)cyclobutyl)phenyl)-6-(((1-methylcyclobutyl)amino)methyl)isoindolin-1-one] registered a half-inhibitory concentration (IC50) of 3900 nM. For the same compound, in test [1], the Fold of selectivity worked out at 5.8× and the equilibrium dissociation constant (Kd) worked out at 420 nM. Also, on c-Cbl (residues 47-435), the Kd is 2500 nM. For the same compound, at Cbl-b, inhibition was half-maximal at 730 nM (IC50); the “(fold-selectivity) Cbl-b and C-Cbl Selectivity” value turned out to be 5.5x.
Compound `CO[C@H]1C[C@](c2cccc(N3Cc4ccc(CNC5(C)CCC5)cc4C3=O)c2)(c2nncn2C)C1` [Compound 449, 2-(3-((1r,3r)-3-methoxy-1-(4-methyl-4H-1,2,4-triazol-3-yl)cyclobutyl)phenyl)-6-(((1-methylcyclobutyl)amino)methyl)isoindolin-1-one] showed an IC50 on c-Cbl of 1200 nM. Moreover, in test [1], the Fold of selectivity was 8.0× and the affinity, expressed as Kd, was 120 nM. The compound also came in with an equilibrium dissociation constant (Kd) at c-Cbl (residues 47-435) of 920 nM. On Cbl-b, the concentration for half-maximal inhibition (IC50) is 220 nM; the “(fold-selectivity) Cbl-b and C-Cbl Selectivity” value is listed as 5.4x.
On c-Cbl, `Cn1cnnc1[C@]1(c2cccc(N3Cc4c(cc(CNC5(C)CCC5)cc4C(F)(F)F)C3=O)c2)C[C@@H](OC2CC2)C1` [Compound 450, 2-(3-((1r,3r)-3-cyclopropoxy-1-(4-methyl-4H-1,2,4-triazol-3-yl)cyclobutyl)phenyl)-6-(((1-methylcyclobutyl)amino)methyl)-4-(trifluoromethyl)isoindolin-1-one] gave an IC50 of 23 nM. Moreover, in test [1], the Fold of selectivity is 7.2× and the Kd was 2.6 nM. The compound further registered a dissociation constant (Kd) at c-Cbl (residues 47-435) of 19 nM. Also, at Cbl-b, the concentration for half-maximal inhibition (IC50) stood at 5.8 nM; the “(fold-selectivity) Cbl-b and C-Cbl Selectivity” value came to 4.0x.
At c-Cbl, `Cn1cnnc1[C@]1(c2cccc(N3Cc4c(Cl)cc(CNC5(C)CCC5)cc4C3=O)c2)C[C@@H](Cl)C1` [Compound 451, 4-chloro-2-(3-((1r,3r)-3-chloro-1-(4-methyl-4H-1,2,4-triazol-3-yl)cyclobutyl)phenyl)-6-(((1-methylcyclobutyl)amino)-methyl)isoindolin-1-one] yielded an IC50 of 6.6 nM. In test [1], this compound returned a Fold of selectivity of 6.0× and an equilibrium dissociation constant (Kd) of 0.25 nM. This compound had a dissociation constant Kd on c-Cbl (residues 47-435) of 1.5 nM. Moreover, at Cbl-b, the IC50 is 4.2 nM; the “(fold-selectivity) Cbl-b and C-Cbl Selectivity” value is listed as 1.6x.
In turn, `Cn1cnnc1[C@]1(c2cccc(N3Cc4c(Cl)cc(CNC5(C)CCC5)cc4C3=O)c2)C[C@H](Cl)C1` [Compound 452, 4-chloro-2-(3-((1s,3s)-3-chloro-1-(4-methyl-4H-1,2,4-triazol-3-yl)cyclobutyl)phenyl)-6-(((1-methylcyclobutyl)amino)methyl)isoindolin-1-one] showed a half-maximal inhibitory concentration (IC50) against c-Cbl of 5.6 nM. For the same compound, in test [1], the Fold of selectivity is recorded as 3.3× and the equilibrium dissociation constant (Kd) worked out at 0.7 nM. Besides, the Kd on c-Cbl (residues 47-435) stood at 2.4 nM. Moreover, on Cbl-b, the IC50 was 5.5 nM; the “(fold-selectivity) Cbl-b and C-Cbl Selectivity” value was found to be 1.0x.
With `Cn1cnnc1C1(c2cccc(N3Cc4c(cc(C(CF)NC5(C)CCC5)cc4C(F)(F)F)C3=O)c2)CCC1` (stereo not drawn) [Compound 453, 6-(2-fluoro-1-((1-methylcyclobutyl)amino)ethyl)-2-(3-(1-(4-methyl-4H-1,2,4-triazol-3-yl)cyclobutyl)phenyl)-4-(trifluoromethyl)isoindolin-1-one], the 50% inhibitory concentration (IC50) against c-Cbl worked out at 11 nM; on Cbl-b, 6.6 nM. This compound also displayed a Fold of selectivity in test [1] of 2.8×. For the same compound, the Kd worked out at 1.7 nM in test [1] and 4.8 nM at c-Cbl (residues 47-435). Besides, the “(fold-selectivity) Cbl-b and C-Cbl Selectivity” value at Cbl-b is listed as 1.7x.
Turning to `CC[C@H]1C[C@@](c2cccc(N3Cc4c(cc(CNC5(C)CCC5)cc4C(F)(F)F)C3=O)c2)(c2nncn2C)C1` [Compound 454, 2-(3-((1r,3s)-3-ethyl-1-(4-methyl-4H-1,2,4-triazol-3-yl)cyclobutyl)phenyl)-6-(((1-methylcyclobutyl)amino)methyl)-4-(trifluoromethyl)isoindolin-1-one], the concentration for half-maximal inhibition (IC50) came out at 16 nM at c-Cbl and 6.5 nM at Cbl-b. In test [1], this compound had a Fold of selectivity of 11×. Moreover, the Kd in test [1] came to 0.85 nM; at c-Cbl (residues 47-435) it was 9.2 nM. Also, the “(fold-selectivity) Cbl-b and C-Cbl Selectivity” value on Cbl-b is on record as 2.4x.
Regarding `CC[C@H]1C[C@](c2cccc(N3Cc4c(cc(CNC5(C)CCC5)cc4C(F)(F)F)C3=O)c2)(c2nncn2C)C1` [Compound 455, 2-(3-((1s,3r)-3-ethyl-1-(4-methyl-4H-1,2,4-triazol-3-yl)cyclobutyl)phenyl)-6-(((1-methylcyclobutyl)amino)methyl)-4-(trifluoromethyl)isoindolin-1-one], the 50% inhibitory concentration (IC50) against c-Cbl came to 20 nM. Besides, in test [1], the Fold of selectivity is 11× and the Kd amounted to 1.4 nM. Also, binding on c-Cbl (residues 47-435) was put at a Kd of 15 nM. Also, at Cbl-b, the 50% inhibitory concentration (IC50) worked out at 8.7 nM; the “(fold-selectivity) Cbl-b and C-Cbl Selectivity” value is recorded as 2.3x.
For the compound `Cn1cnnc1[C@H](c1cccc(N2Cc3c(cc(CNC4(C)CCC4)cc3C(F)F)C2=O)c1)C1CC(F)C1` (stereo partly drawn) [Compound 461, 4-(difluoromethyl)-2-(3-((S)-((1s,3R)-3-fluorocyclobutyl)(4-methyl-4H-1,2,4-triazol-3-yl)methyl)phenyl)-6-(((1-methylcyclobutyl)amino)methyl)isoindolin-1-one], on c-Cbl, half-maximal inhibition (IC50) was put at 3200 nM. Further, in test [1], the Fold of selectivity was found to be 18× and binding was characterised by a dissociation constant (Kd) of 190 nM. On c-Cbl (residues 47-435), this compound gave a dissociation constant Kd of 3400 nM. Moreover, at Cbl-b, the half-maximal inhibitory concentration (IC50) turned out to be 360 nM; the “(fold-selectivity) Cbl-b and C-Cbl Selectivity” value was 8.8 x.
`Cn1cnnc1C(c1cccc(N2Cc3c(cc(CNC4(C)CCC4)cc3C(F)(F)F)C2=O)c1)C1(F)CSC1` (stereo not drawn) [Compound 462, 2-(3-((3-fluorothietan-3-yl)(4-methyl-4H-1,2,4-triazol-3-yl)methyl)phenyl)-6-(((1-methylcyclobutyl)amino)methyl)-4-(trifluoromethyl)isoindolin-1-one] gave a 50% inhibitory concentration (IC50) against c-Cbl of 24 nM. In test [1], this compound had a Fold of selectivity of 10× and an equilibrium dissociation constant (Kd) of 2 nM. This compound also had a Kd at c-Cbl (residues 47-435) of 21 nM. In addition, at Cbl-b, half-maximal inhibition (IC50) required 13 nM; the “(fold-selectivity) Cbl-b and C-Cbl Selectivity” value was 1.9x.
Turning to `Cn1cnnc1[C@@H](c1cccc(N2Cc3c(cc(CNCC(C)(C)F)cc3C(F)(F)F)C2=O)c1)C1COC1` [Compound 463, (R)-6-(((2-fluoro-2-methylpropyl)amino)methyl)-2-(3-((4-methyl-4H-1,2,4-triazol-3-yl)(oxetan-3-yl)methyl)phenyl)-4-(trifluoromethyl)isoindolin-1-one], inhibition against c-Cbl was half-maximal at 12 nM (IC50). For the same compound, in test [1], the Fold of selectivity was determined as 5.2× and binding was put at a Kd of 3.2 nM. The compound further came in with a dissociation constant (Kd) on c-Cbl (residues 47-435) of 17 nM. Moreover, on Cbl-b, the IC50 amounted to 6.5 nM; the “(fold-selectivity) Cbl-b and C-Cbl Selectivity” value was determined as 1.9x.
`CO[C@H]1C[C@](c2cccc(N3Cc4c(cc(CN[C@H](C)C5CCC5)cc4C(F)(F)F)C3=O)c2)(c2nncn2C)C1` [Compound 467] gave a concentration for half-maximal inhibition (IC50) on c-Cbl of 86 nM. In test [1], this compound gave a Fold of selectivity of 7.6× and a Kd of 16 nM. Moreover, the equilibrium dissociation constant (Kd) at c-Cbl (residues 47-435) is 120 nM. Also, at Cbl-b, inhibition was half-maximal at 22 nM (IC50); the “(fold-selectivity) Cbl-b and C-Cbl Selectivity” value came out at 4.0x.
